Assay results reported in paper PMC8910733, “Cyclin-Dependent Kinases (CDKs) and the Human Cytomegalovirus-Encoded CDK Ortholog pUL97 Represent Highly Attractive Targets for Synergistic Drug Combinations” (International Journal of Molecular Sciences, 2022).
“And” between values parts separate entries of the source, which are not always exact repeats. Identical values can stand only once. Like-named read-outs stand apart in the source and are kept apart here.

Assays:
[1] = neutral red assay (NRA), drug-induced cytotoxicity; assay type: cell-based, human; conditions: human
Procedure: (§1) Drug induced cytotoxicity in HFFs was measured as a reduction of cell viability determined by neutral red uptake assay (NRA), as described previously. Briefly, HFFs treated with compounds for 7 d were incubated with a final concentration of 40 μg/mL neutral red (Sigma Aldrich, St. Louis, MO, USA) for 3 h. Incorporated neutral red was released from the cells by incubation with destaining solution (50% ethanol, 49% H2O, 1% acetic acid) and subsequently quantitated in a microplate reader (PerkinElmer, Waltham, MA, USA) by fluorescence measurement using 560/630 nm for excitation/emission, respectively.

HCMV AD169-GFP [2] = conditions: for SI: selectivity index CC50/EC50
Procedure: (§2) Primary human foreskin fibroblasts (HFFs, derived from clinical samples, Children’s Hospital, Erlangen, Germany) were grown in Eagle’s minimal essential medium (MEM) supplemented with 1 × GlutaMAX^TM (both Thermo Fisher Scientific, Waltham, MA, USA), 10 μg/mL gentamicin and 10% fetal bovine serum (FBS, Capricorn, Ebsdorfergrund, Germany). […] Cultured cells were maintained at 37 °C, 5% CO2 and 80% humidity. All cell culture was regularly monitored for absence of mycoplasma contamination (Lonza™ Mycoalert™, Thermo Fisher Scientific, Waltham, MA, USA). Recombinant HCMV AD169 expressing green fluorescent protein (AD169-GFP, [61]) and recombinant ORF-UL97-deleted HCMV AD169 expressing green fluorescent protein (ΔUL97-GFP BAC213 [48]) were used for in vitro replication assays.
(§3) Loewe additivity was assessed using an adapted protocol of the HCMV GFP-based replication assay [21, 61] described previously [1]. HFFs were seeded at app. 1.6 × 10^5 cells/well in 12-well culture plates (four plates per assay) and infected on the following day with HCMV AD169-GFP [61] in a dilution resulting in 25% GFP-positive cells at 7 d p.i. (i.e., 1× TCID25^7d). […] Standard protocol comprised a serial dilution of six concentrations/single compound, starting with app. 4–8 × EC50, and a 1:2 serial dilution of eight concentrations of the combination, starting with a combination of half of the highest concentrations of both single dilution series. All infections were performed in biological duplicates. Cells were lysed by the addition of 200 µL lysis buffer/well 7 d p.i., and cell suspensions were mixed and transferred to a 96-well plate. Centrifugation was performed at 3000 rpm for 15 min and clear lysates were subjected to automated GFP quantitation in a Victor X4 microplate reader (PerkinElmer, Waltham, MA, USA). Antiviral efficacy (mean of duplicate measurement of biological duplicates) was expressed as the percentage of solvent control and entered into the CompuSyn software (Version 1.0 [65]; ComboSyn, Inc., Paramus, NJ, USA). Only experiments with an r value > 0.90 and EC50 values close to previously determined concentrations were accepted.

HCMV AD169-GFP [3] = experiment: antiviral drug treatment in wild-type HFFs; conditions: WT HFFs
Procedure: (§4) To achieve a transient knock-out of cyclin H, app. 1.5 × 10^5 HFFs/well were grown in 12-well culture plates and, starting the following day, incubated for 24 h with 0.5 mL of lentiviral supernatant (a mixture containing all six gRNAs described in 4.9) supplemented with 0.5 mL MEM and 7.5 µg/mL polybrene (Sigma Aldrich, St. Louis, MO, USA) per well. Virus supernatant was replaced by fresh media 24 h later and cells were used for infection experiments (see 4.5 and 4.6) on the following day.
(§5) 12-well culture plates and treated with lentiviral supernatants to achieve a CRISPR/C as9 -media ted
(§6) transient cyclin H knock-down. Subsequently, cells were dir ectly infected with HCMV AD169-GF P for
(§7) 90 min , then fresh medium, supplemented with indicated concentrations of compounds, was added. Cells
(§8) were harvested and lysed 7 d pos t-infection and vira l GFP reporter signa ls were measured in
(§9) quadruplicate. Data are presented as mean values of biological duplicates, adjusted in percent to the
(§10) respective solvent DMSO c on t r ol (ctrl ).

HCMV AD169-GFP [4] = experiment: antiviral drug treatment in cyclin H knock-out HFFs; conditions: CycH KO HFFs
Procedure: as §4, §5, §6, §7, §8, §9, §10

CDK7 = experiment: confocal immunofluorescence quantitation of CDK7 signal in HFFs; conditions: HCMV AD169-GFP-infected HFFs, 7 d; MBV 10 µM, LDC4297 0.1 µM, R25 1 µM, abemaciclib 1 µM; untreated mock-infected = 100%; mean ± SEM
[5] = tested on: mock-infected primary human foreskin fibroblasts (HFFs); experiment: neutral red assay (NRA), drug-induced cytotoxicity; assay type: cell-based; conditions: single treatment; mock-infected HFFs, 7 d; mean ± SD
Procedure: as §1

HCMV AD169-GFP [6] = experiment: Loewe additivity fixed-dose assay
Procedure: as §3

HCMV ΔUL97-GFP BAC213 = experiment: GFP replication assay with deletion mutant
Procedure: Primary human foreskin fibroblasts (HFFs, derived from clinical samples, Children’s Hospital, Erlangen, Germany) were grown in Eagle’s minimal essential medium (MEM) supplemented with 1 × GlutaMAX^TM (both Thermo Fisher Scientific, Waltham, MA, USA), 10 μg/mL gentamicin and 10% fetal bovine serum (FBS, Capricorn, Ebsdorfergrund, Germany). […] Cultured cells were maintained at 37 °C, 5% CO2 and 80% humidity. All cell culture was regularly monitored for absence of mycoplasma contamination (Lonza™ Mycoalert™, Thermo Fisher Scientific, Waltham, MA, USA). […]
Loewe additivity was assessed using an adapted protocol of the HCMV GFP-based replication assay [21, 61] described previously [1]. […] Centrifugation was performed at 3000 rpm for 15 min and clear lysates were subjected to automated GFP quantitation in a Victor X4 microplate reader (PerkinElmer, Waltham, MA, USA). Antiviral efficacy (mean of duplicate measurement of biological duplicates) was expressed as the percentage of solvent control and entered into the CompuSyn software (Version 1.0 [65]; ComboSyn, Inc., Paramus, NJ, USA). Only experiments with an r value > 0.90 and EC50 values close to previously determined concentrations were accepted.

HCMV AD169-GFP [7] = experiment: confocal quantitation of GFP reporter signal in HFFs; conditions: MBV 10 µM, LDC4297 0.1 µM, R25 1 µM, abemaciclib 1 µM; untreated infected = 100%, mock = 0%
HCMV AD169-GFP [8] = experiment: microbe, parasite or virus in culture
Procedure: as §2, §3

[9] = mock-infected primary human foreskin fibroblasts (HFFs), single treatment, mock-infected HFFs, 7 d, mean ± SD, read-out: CC50
[10] = Human betaherpesvirus 5, AD169, single treatment, HCMV AD169-GFP in HFFs, mean ± SD

## CC(=O)N[C@@H]1CCC[C@H](C(=O)Nc2cc(-c3cnn4c3CC(C)(C)C4)c(Cl)cn2)C1 [AZD4573]
[1]; [9]
  CC50 at 7 d: 350 ± 90 nM

## CC[C@H](Nc1nc(NCc2cnc(C)cc2C)c2ncn(C(C)C)c2n1)[C@@H](C)O [CYC065]
[1]; [9]
  CC50 at 7 d: < 100 nM

## CC(C)c1cnn2c(NCc3ccccc3-n3cccn3)nc(OC3CCCNC3)nc12 (stereo not shown) [LDC4297]
HCMV AD169-GFP [2]; parental HCMV AD169-GFP, in parallel with ΔUL97 mutant (Figure 5A)
  EC50: 16 ± 5 nM
HCMV AD169-GFP [2]; single treatment
  SI: >1000
HCMV AD169-GFP [2]; single treatment, HCMV AD169-GFP in HFFs, mean ± SD
  EC50: 9 ± 2 nM
HCMV AD169-GFP [3]; 0.003 µM
  mean replication (in % solvent control): 91%
HCMV AD169-GFP [3]; 0.025 µM
  mean replication (in % solvent control): 23%
HCMV AD169-GFP [3]; 0.1 µM
  mean replication (in % solvent control): 7%
HCMV AD169-GFP [4]; 0.003 µM
  mean replication (in % solvent control): 85%
HCMV AD169-GFP [4]; 0.025 µM
  mean replication (in % solvent control): 32%
HCMV AD169-GFP [4]; 0.1 µM
  mean replication (in % solvent control): 4%
CDK7
  CDK7 intensity: 172% ± 7%
[5]
  CC50: > 10000 nM
HCMV AD169-GFP [6]; read-out: EC50 single drugs, single drug, run beside the combination of the same table section
  EC50: 13 nM and 9 nM and 16 nM
HCMV AD169-GFP [6]; read-out: EC90 single drugs, single drug, run beside the combination of the same table section
  EC90: 97 nM and 147 nM and 88 nM and 124 nM
HCMV ΔUL97-GFP BAC213; deletion mutant ΔUL97 BAC213 (Figure 5B)
  EC50: 61 ± 8 nM
HCMV AD169-GFP [7]
  HCMV AD169-GFP-specific reporter signal (GFP intensity): below 25%

## CC(C)Nc1nc2cc(Cl)c(Cl)cc2n1[C@H]1O[C@@H](CO)[C@H](O)[C@@H]1O [MBV, maribavir]
HCMV AD169-GFP [2]; single treatment
  SI: >250
HCMV AD169-GFP [3]; 0.31 µM
  mean replication (in % solvent control): 20%
HCMV AD169-GFP [3]; 2.5 µM
  mean replication (in % solvent control): 6%
HCMV AD169-GFP [3]; 10 µM
  mean replication (in % solvent control): 3%
HCMV AD169-GFP [4]; 0.31 µM
  mean replication (in % solvent control): 21%
HCMV AD169-GFP [4]; 2.5 µM
  mean replication (in % solvent control): 9%
HCMV AD169-GFP [4]; 10 µM
  mean replication (in % solvent control): 6%
HCMV AD169-GFP [8]; Human betaherpesvirus 5, AD169, parental HCMV AD169-GFP, in parallel with ΔUL97 mutant (Figure 5A)
  EC50: 220 ± 260 nM
HCMV AD169-GFP [8]; [10]
  EC50: 350 ± 420 nM
[1]; [9]
  CC50 at 7 d: > 100000 nM
HCMV ΔUL97-GFP BAC213; Human betaherpesvirus 5
  EC50: > 20000 nM
HCMV AD169-GFP [7]
  HCMV AD169-GFP-specific reporter signal (GFP intensity): below 25%

## Cc1c(Br)c(Br)c2c3c1nc(N1CCNCC1)n3CCC2 [SEL120]
HCMV AD169-GFP [2]; single treatment
  SI: 75
HCMV AD169-GFP [8]; [10]
  EC50: 79 ± 1 nM
[1]; [9]
  CC50 at 7 d: 5900 ± 3850 nM

## CC(C)(C)c1cnc(CSc2cnc(NC(=O)C3CCN(CC(=O)NCCOCCOCCOCCNc4cccc5c4C(=O)N(C4CCC(=O)NC4=O)C5=O)CC3)s2)o1 (stereo not shown) [THAL-SNS032]
HCMV AD169-GFP [2]; single treatment
  SI: 6
HCMV AD169-GFP [8]; [10]
  EC50: 25 ± 2 nM
[1]; [9]
  CC50 at 7 d: 140 ± 60 nM

## CCc1cnn2c(NCc3ccc[n+]([O-])c3)cc(N3CCCC[C@H]3CCO)nc12 [dinaciclib]
[1]
  CC50 at 7 d: < 100 nM

## CN1CCC(c2c(O)cc(O)c3c(=O)cc(-c4ccccc4Cl)oc23)C1CO (stereo not shown) [riviciclib]
[1]; [9]
  CC50 at 7 d: 1600 ± 60 nM

## CC(C)c1cnn2c(NCc3ccccc3)cc(NC[C@H]3CCNC[C@@H]3O)nc12 [samuraciclib]
[1]; single treatment, mock-infected HFFs, 7 d, mean ± SD, read-out: CC50
  CC50 at 7 d: 500 ± 210 nM

## CVT-313
[5]
  CC50: 5570 ± 50 nM

## SY1365
[5]
  CC50: < 100 nM
